From patent US8980920B2, “Antiviral compounds of three linked aryl moieties to treat diseases such as hepatitis C” (Merck Sharp & Dohme Corp., priority 2009, dated 2015)
pEC50: −log10 of the molar value.

Columns and labels:
HCV replicon 1a 1A7 = experiment: Cell-based HCV replicon assay, genotype 1a 1A7; settings: Hepatitis C virus, 72 h; replicon cells, genotype 1a 1A7, replicon RNA by Taqman on day 3
Procedure: (§1) To measure cell-based anti-HCV activity of selected compounds of the present invention, the following replicon assay can be used.
(§2) Replicon cells are seeded at 5000 cells/well in 96-well collagen I-coated Nunc plates in the presence of the test compound. Various concentrations of test compound, typically in 10 serial 2-fold dilutions, are added to the assay mixture, with the starting concentration ranging from 10 μM to 0.001 μM. The final concentration of DMSO should be about 0.5%, and the final concentration of fetal bovine serum should be about 5%, in the assay media. Cells are harvested on day 3 by the addition of 1× cell lysis buffer (Ambion cat #8721). The replicon RNA level is then measured (using, for example, the real time PCR (Taqman assay)). The amplicon is located in 5B. The PCR primers are: 5B.2F, ATGGACAGGCGCCCTGA (SEQ ID NO. 1); 5B.2R, […] (SEQ ID NO. 2); the probe sequence is FAM-labeled CACGCCATGCGCTGCGG (SEQ ID NO. 3). […] Alternatively, to quantitate the absolute amount of replicon RNA, a standard curve can be established by including serially diluted T7 transcripts of replicon RNA in the Taqman assay. […]
(§3) HCV replicon assay data was calculated for various genotypes for selected compounds of the present invention using this method and is provided in the table below.

HCV replicon 2a JFH = experiment: Cell-based HCV replicon assay, genotype 2a JFH; settings: Hepatitis C virus, 72 h, replicon cells, replicon RNA by Taqman on day 3
Procedure: as §1, §2, §3

HCV replicon 1b Y93H = experiment: Cell-based HCV replicon assay, genotype 1b Y93H; settings: Hepatitis C virus, 72 h, read-out: EC50 1b Y93H
Procedure: as §1, §2, §3

HCV replicon 1b c16 = experiment: Cell-based HCV replicon assay, genotype 1b c16; settings: Hepatitis C virus, 72 h; replicon cells, genotype 1b c16, replicon RNA by Taqman on day 3
Procedure: as §1
Replicon cells are seeded at 5000 cells/well in 96-well collagen I-coated Nunc plates in the presence of the test compound. Various concentrations of test compound, typically in 10 serial 2-fold dilutions, are added to the assay mixture, with the starting concentration ranging from 10 μM to 0.001 μM. The final concentration of DMSO should be about 0.5%, and the final concentration of fetal bovine serum should be about 5%, in the assay media. Cells are harvested on day 3 by the addition of 1× cell lysis buffer (Ambion cat #8721). The replicon RNA level is then measured (using, for example, the real time PCR (Taqman assay)). The amplicon is located in 5B. The PCR primers are: 5B.2F, ATGGACAGGCGCCCTGA (SEQ ID NO. 1); 5B.2R, […] (SEQ ID NO. 2); the probe sequence is FAM-labeled CACGCCATGCGCTGCGG (SEQ ID NO. 3). GAPDH RNA is to be used as endogenous control and is amplified in the same reaction as NS5B (multiplex PCR) using the primers and the VIC-labeled probe recommended by the manufacturer (PE Applied Biosystems). The real-time RT-PCR reactions can be run on an ABI PRISM 7900HT Sequence Detection System using the following program: 48° C. for 30 minutes, 95° C. for 10 minutes, 40 cycles of 95° C. for 15 sec, 60° C. for 1 minute. The ΔCT values (CT5B-CTGAPDH) are then plotted against the concentration of test compound and fitted to the sigmoid dose-response model using XLfit4 (MDL). EC50 is defined as the concentration of inhibitor necessary to achieve ΔCT=1 over the projected baseline; EC90 is defined as the concentration necessary to achieve ΔCT=3.2 over the baseline. Alternatively, to quantitate the absolute amount of replicon RNA, a standard curve can be established by including serially diluted T7 transcripts of replicon RNA in the Taqman assay. […]
as §3

Question: `COC(=O)N[C@@H](C(=O)N1CCC[C@@H]1c1ncc(-c2ccc(C#Cc3ccc4nc([C@@H]5CCCN5C(=O)[C@H](NC(=O)OC)c5ccccc5)[nH]c4c3)cc2)[nH]1)c1ccccc1` [Compound 57] was tested. Which pEC50 (HCV replicon 1a 1A7) did it give?
Answer: 9.39

Question: And the pEC50 (HCV replicon 2a JFH)?
Answer: 10.72

Question: And the pEC50 (HCV replicon 1b Y93H)?
Answer: 9.30

Question: What about the pEC50 (HCV replicon 1b c16) of the same compound?
Answer: 12.00

Question: `COC(=O)N[C@H](C(=O)N1CCC[C@@H]1c1ncc(-c2ccc(C#Cc3ccc4nc([C@@H]5CCCN5C(=O)[C@@H](NC(=O)OC)C(C)C)[nH]c4c3)cc2)[nH]1)C(C)C` [Compound 56] was tested. Which pEC50 (HCV replicon 1a 1A7) did it give?
Answer: 9.52

Question: And the pEC50 (HCV replicon 2a JFH)?
Answer: 9.52

Question: And the pEC50 (HCV replicon 1b Y93H)?
Answer: 8.30

Question: What about the pEC50 (HCV replicon 1b c16) of the same compound?
Answer: 10.80

Question: With `CC(C)(C)OC(=O)N1CCC[C@H]1c1ncc(-c2ccc(C#Cc3ccc4nc([C@@H]5CCCN5C(=O)OC(C)(C)C)[nH]c4c3)cc2)[nH]1` [Compound 58] as the compound, how does the pEC50 (HCV replicon 1b c16) read?
Answer: 6.60
